Source: patent US20070196885A1, “Method of determining carbonic anhydrase i activity” (YAMASA CORPORATION, priority 2004, published 2007)

Tests used:
Type in all cases: biochemical
[1] = target: T1, human CAII (Homo sapiens, UniProt P00918); test: Hydrolase activity with AEBSF and formaldehyde (Example 3); conditions: 5-μg/mL human CAII solution; 9 mM substrate solution; 0.1 mM AEBSF and 50 mM formaldehyde; pH 8, room temperature, five minutes
Procedure: (§1) o-Nitrophenyl acetate was employed as a substrate having higher reactivity with CAI than with CAII. In addition, 4-(2-aminoethyl)benzenesulfony fluoride (AEBSF) serving as an inhibitor inhibiting a hydrolase other than CA, and formaldehyde serving as an enhancer of the inhibitor were employed.
(§2) • (1) By use of purified water, a 25-μg/mL human CAI solution and a 5-μg/mL human CAII solution were prepared. • (2) A 30 mM dimethyl malonate buffer (pH: 8) including 0.1 mM AEBSF, and 50 mM formaldehyde were provided. • (3) By use of purified water, a 9 mM o-nitrophenyl acetate solution was prepared. Before dissolution in water, the substrate had been dissolved in advance in acetone. […] Absorbance of the mixture was measured at 405 nm before and after reaction, and change in absorbance (ΔA) was calculated.
(§3) In order to prepare a sample reference, only purified water was used as solution (1). The reference was allowed to react in the same manner as above, and absorbance of the mixture was measured at 405 nm before and after reaction, whereby change in absorbance of the reference was determined. The change in absorbance intrinsic to CA was calculated by the following equation:
(§4) <Calculation> Change in CA-intrinsic absorbance=ΔA1−ΔA3; wherein
(§5) ΔA1 represents change in absorbance of a sample consisting of solution (1), solution (2), and solution (3), and […]

[2] = target: T2, human CAI (Homo sapiens, UniProt P00915); test: as above; conditions: 25-μg/mL human CAI solution; 9 mM substrate solution; 0.1 mM AEBSF and 50 mM formaldehyde; pH 8, room temperature, five minutes
T2 sequence (P00915 whole entry): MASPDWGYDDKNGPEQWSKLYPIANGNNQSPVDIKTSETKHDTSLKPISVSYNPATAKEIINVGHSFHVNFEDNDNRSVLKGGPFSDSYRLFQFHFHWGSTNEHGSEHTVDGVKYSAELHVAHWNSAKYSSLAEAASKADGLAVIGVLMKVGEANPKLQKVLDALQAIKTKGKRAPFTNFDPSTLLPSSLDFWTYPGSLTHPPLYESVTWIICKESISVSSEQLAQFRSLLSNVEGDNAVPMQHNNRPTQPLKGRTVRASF
Procedure: as §1, §2, §3, §4, §5

[3] = target: T1, human CAII; test: Acetazolamide-inhibited hydrolase activity (Example 5); conditions: 5-μg/mL human CAII solution, 3 mM acetazolamide solution, pH 8, room temperature, five minutes
Excerpt: (§6) o-Nitrophenyl acetate was employed as a substrate having higher reactivity with CAI than with CAII. As an inhibitor, acetazolamide, which inhibits both CAI and CAII, was used in combination. A reference substrate was produced from p-nitrophenyl acetate—a substrate having low specificity to CAI (reactive with both CAI and CAII)—and the above acetazolamide serving as a CA inhibitor in combination.
(§7) • (1) By use of purified water, a 25-μg/mL human CAI solution and a 5-μg/mL human CAII solution were prepared. • (2) A 3 mM acetazolamide solution was prepared by use of a 30 mM dimethyl malonate buffer (pH 8). Before dissolution in the buffer, acetazolamide had been dissolved in advance in dimethyl sulfoxide (DMSO). Thus, the solution has a DMSO content of 0.15% (v/v). • (3) By use of purified water, a 6 mM o-nitrophenyl acetate solution and a 3 mM p-nitrophenyl acetate solution were prepared. Before dissolution in water, each substrate had been dissolved in advance in acetone. […] Specifically, solutions of (1), (2), and (3) (each 50 μL) were mixed, and the mixture was allowed to react at room temperature for five minutes. Absorbance of the mixture was measured at 405 nm before and after reaction, and change in absorbance (ΔA) was calculated.
(§8) In order to prepare a sample reference and an inhibitor reference, only purified water and 0.15% (v/v) DMSO-containing 30 mM dimethyl malonate buffer were used as reference solutions (1) and (2), respectively. Each of the references was allowed to react in the same manner as above, and absorbance of the mixture was measured, whereby change in absorbance of the reference was determined.
(§9) <Calculation> Change in CA-intrinsic absorbance=[ΔA1−ΔA3]−[ΔA2−ΔA4]; wherein • ΔA1 represents change in absorbance of a sample consisting of solution (1), reference solution (2), and solution (3); • ΔA2 represents change in absorbance of a sample consisting of solutions (1), (2), and (3); • ΔA3 represents change in absorbance of a sample consisting of reference solutions (1) and (2), and solution (3); and • ΔA4 represents change in absorbance of a sample consisting of reference solution (1) and solutions (2) and (3). <Results>

[4] = target: T2, human CAI; test: as above; conditions: for Absorbance change (CA-intrinsic, inhibited by acetazolamide, 405 nm): 25-μg/mL human CAI solution, 3 mM acetazolamide solution, pH 8, room temperature, five minutes; for reactivity of substrate with CAI relative to reactivity with CAII: used in combination with acetazolamide (Example 5, Table 3)
Excerpt: as §6, §7, §8, §9

[5] = target: T1, human CAII; test: Hydrolase activity, o-nitrophenyl acetate substrate, no inhibitor (Example 1); conditions: 5-μg/mL human CAII solution, 9 mM substrate solution, pH 8, room temperature, five minutes
Procedure: (§10) o-Nitrophenyl acetate was employed as a substrate having higher reactivity with CAI than with CAII, and no inhibitor was used.
(§11) • (1) By use of purified water, a 25-μg/mL human CAI solution and a 5-μg/mL human CAII solution were prepared. • (2) A 30 mM dimethyl malonate buffer (pH: 8) was provided. • (3) By use of purified water, a 9 mM o-nitrophenyl acetate solution was prepared. Before dissolution in water, the substrate had been dissolved in advance in acetone. […] Specifically, solutions of (1), (2), and (3) (each 50 μL) were mixed, and the mixture was allowed to react at room temperature for five minutes. Absorbance of the mixture was measured at 405 nm before and after reaction, and change in absorbance (ΔA) was calculated.
as §3, §4
(§12) ΔA1 represents change in absorbance of a sample consisting of solutions (1), (2), and (3), and
(§13) ΔA3 represents change in absorbance of a sample consisting of reference solution (1) and solutions (2) and (3).

[6] = target: T2, human CAI; test: as above; conditions: 25-μg/mL human CAI solution, 9 mM substrate solution, pH 8, room temperature, five minutes
Procedure: as §10, §11, §3, §4, §12, §13

[7] = target: T1, human CAII; test: Iodide-inhibited hydrolase activity, o-nitrophenyl acetate (Example 9); conditions: 5-μg/mL human CAII solution; 9 mM o-nitrophenyl acetate solution; 300 mM potassium iodide solution; pH 8, room temperature, five minutes
Procedure: (§14) o-Nitrophenyl acetate was used as a substrate having higher reactivity with CAI than with CAII, and in combination, an iodide ion (I^−) was used as a CA inhibitor inhibiting CAI more potently than CAII.
as §2, with “(2) A 300 mM potassium iodide solution was prepared by use of a 30 mM” for “(2) A 30 mM”, “malonate buffer (pH 8). • (3)” for “malonate buffer (pH: 8) including 0.1 mM AEBSF, and 50 mM formaldehyde were provided. • (3)”
as §8, with “water and 30 mM” for “water and 0.15% (v/v) DMSO-containing 30 mM”, “manner as employed above, and” for “manner as above, and”, “was determined. […]” for “was determined.”

[8] = target: T2, human CAI; test: as above; conditions: 25-μg/mL human CAI solution; 9 mM o-nitrophenyl acetate solution; 300 mM potassium iodide solution; pH 8, room temperature, five minutes
Procedure: as §14
as §2, with “(2) A 300 mM potassium iodide solution was prepared by use of a 30 mM” for “(2) A 30 mM”, “malonate buffer (pH 8). • (3)” for “malonate buffer (pH: 8) including 0.1 mM AEBSF, and 50 mM formaldehyde were provided. • (3)”
as §8, with “water and 30 mM” for “water and 0.15% (v/v) DMSO-containing 30 mM”, “manner as employed above, and” for “manner as above, and”, “was determined. […]” for “was determined.”

[9] = target: T1, human CAII; test: Iodide-inhibited hydrolase activity, p-nitrophenyl acetate (Example 7); conditions: 5-μg/mL human CAII solution; 3 mM p-nitrophenyl acetate solution; 3 mM potassium iodide solution; pH 8, room temperature, five minutes
Procedure: (§15) p-Nitrophenyl acetate serving as a substrate reacting with both CAI and CAII and an iodide (I^−) serving as a CA inhibitor inhibiting CAI more potently than CAII were employed in combination.
as §11, with “(2) A 3 mM potassium iodide solution was prepared by use of a 30 mM” for “(2) A 30 mM”, “malonate buffer (pH 8). • (3)” for “malonate buffer (pH: 8) was provided. • (3)”, “water, a 3 mM p-nitrophenyl” for “water, a 9 mM o-nitrophenyl”, “3 mM p-nitrophenyl acetate solution” for “9 mM o-nitrophenyl acetate solution”
as §8, with “water and 30 mM” for “water and 0.15% (v/v) DMSO-containing 30 mM”, “manner as employed above, and” for “manner as above, and”, “was determined. […]” for “was determined.”

[10] = target: T2, human CAI; test: as above; conditions: 25-μg/mL human CAI solution; 3 mM p-nitrophenyl acetate solution; 3 mM potassium iodide solution; pH 8, room temperature, five minutes
Procedure: as §15
as §11, with “(2) A 3 mM potassium iodide solution was prepared by use of a 30 mM” for “(2) A 30 mM”, “malonate buffer (pH 8). • (3)” for “malonate buffer (pH: 8) was provided. • (3)”, “water, a 3 mM p-nitrophenyl” for “water, a 9 mM o-nitrophenyl”, “3 mM p-nitrophenyl acetate solution” for “9 mM o-nitrophenyl acetate solution”
as §8, with “water and 30 mM” for “water and 0.15% (v/v) DMSO-containing 30 mM”, “manner as employed above, and” for “manner as above, and”, “was determined. […]” for “was determined.”

[11] = 6 mM o-nitrophenyl acetate solution
[12] = 3 mM p-nitrophenyl acetate solution

Row | Absorbance change (CA-intrinsic, 405 nm) [1] | Absorbance change (CA-intrinsic, 405 nm) [2] | Absorbance change (CA-intrinsic, inhibited by acetazolamide, 405 nm) [3, 11] | Absorbance change (CA-intrinsic, inhibited by acetazolamide, 405 nm) [4, 11] | Absorbance change (CA-intrinsic, 405 nm) [5] | Absorbance change (CA-intrinsic, 405 nm) [6] | Absorbance change (CA-intrinsic, inhibited by iodide, 405 nm) [7] | Absorbance change (CA-intrinsic, inhibited by iodide, 405 nm) [8] | Absorbance change (CA-intrinsic, inhibited by acetazolamide, 405 nm) [3, 12] | Absorbance change (CA-intrinsic, inhibited by acetazolamide, 405 nm) [4, 12] | Absorbance change (CA-intrinsic, inhibited by iodide, 405 nm) [9] | Absorbance change (CA-intrinsic, inhibited by iodide, 405 nm) [10] | SMILES | reactivity of substrate with CAI relative to reactivity with CAII [4]
1 | 0.008 | 0.329 | 0.004 | 0.285 | 0.011 | 0.511 | 0.009 | 0.504 |  |  |  |  | CC(=O)Oc1ccccc1[N+](=O)[O-] [o-Nitrophenyl acetate, o-nitrophenyl acetate] | higher than twice the reactivity with CAII
2 |  |  |  |  |  |  |  |  | 0.162 | 0.283 | 0.005 | 0.052 | CC(=O)Oc1ccc([N+](=O)[O-])cc1 [p-Nitrophenyl acetate, p-nitrophenyl acetate] | lower than twice the reactivity with CAII
